Test results taken from article PMC8453901, “GLPG1205, a GPR84 Modulator: Safety, Pharmacokinetics, and Pharmacodynamics in Healthy Subjects” (Clinical Pharmacology in Drug Development, 2021).

What was measured:
[1] = Study 2 part 2: pharmacokinetics with 250-mg loading dose then 50 mg once daily; format: in vivo, human
Method: During study 2, GLPG1205 50 mg or matching placebo was administered as capsules in the morning 30 minutes after the start of a standard breakfast. Subjects were kept in‐house from the evening of day –1 to ≈26 hours after the first dose (day 2), and from the evening of day 13 until day 15. Administration of the study drug was performed daily at the clinical pharmacology unit. Subjects returned for a follow‐up visit at day 35.
In part 1, 24 healthy male subjects were matched into 3 cohorts based on body weight: Cohort A comprised 8 subjects aged 65–74 years, inclusive; cohort B comprised 8 subjects aged ≥75 years (1:1 weight matched with cohort A subjects [± 5 kg]); and cohort C comprised 8 subjects aged 18 to 50 years, inclusive (1:1 weight matched with cohort A subjects [± 5 kg]). All cohorts received GLPG1205 50 mg once daily or matching placebo, in a 3:1 ratio, for 14 days. In the open‐label second part of study 2, 8 subjects (cohort D) aged 65 to 74 years, inclusive, were included to characterize the PK profile after a loading dose of GLPG1205 250 mg on day 1 followed by multiple doses of GLPG1205 50 mg once daily from day 2 to day 14.
In the SAD part of study 1, blood samples (2 mL) for PK assessments were obtained before dosing and at multiple time points on the day of study drug administration (before dosing and 0.5, 1, 2, 4, 6, 8, and 12 hours after dosing) and at 24, 48, and 72 hours after dosing. The predose sample for the next dose level was also used in PK analysis (168 hours after dosing). […] In the MAD part of study 1, blood samples (2 mL) were obtained on days 1, 2, 4, 5, 6, 8, 10, 12, 14, 15, 16, 17, and 18 and at follow‐up (approximately 7 to 10 days after the last dose). These PK blood samples were taken after dosing (1, 2, 4, 6, 8, 12, and 24 hours) on day 1; before dosing on days 4, 6, 8, and 10; and after dosing (1, 2, 4, 6, 8, 12, 24, 72, and 96 hours) on day 14. The following additional PK blood samples were also taken: cohort C, before dosing on day 5; and cohorts D and E, before dosing on day 12. Urine samples were obtained from fractions collected over 6‐ or 12‐hour periods after dosing on days –1, 1, 2, 13, 14, and 15; samples obtained on days –1 and 13 were for cytochrome P450 (CYP) induction analysis only. In study 2, blood samples (2 mL) were obtained on days 1, 2, 5, 7, 10, 14, 15, 17, and 20 and at follow‐up (approximately 21 days after end of study medication administration). Blood samples were taken before dosing and at 1, 2, 4, 6, 8, 12, and 24 hours after drug administration on days 1 and 14 and before dosing on other sampling days.
GLPG1205 plasma concentrations were determined using a validated liquid chromatography with tandem mass spectrometry method. After a protein precipitation with methanol, a chromatographic separation was performed on a Kinetex C18 column (50×3.0 mm, 2.6 μm; Phenomenex, Torrance, California) set at 40°C by using a Nexera high‐performance liquid chromatography (HPLC) system (Shimadzu, Kyoto, Japan) or an Infinity HPLC system (Agilent Technologies, Diegem, Belgium) in isocratic elution mode. A QTRAP6500, QTRAP4000, or API4000 mass spectrometer (AB Sciex, Nieuwerkerk aan den Ijssel, The Netherlands) equipped with a TurboIonSpray probe operated in the multiple reaction monitoring in positive mode was used for quantification. The calibration curves in plasma were linear over the range of 1 to 1000 ng/mL with 1/x^2 as weighting factor. The limit of quantification of the assay in the plasma samples was set at 1 ng/mL.
PK calculations were performed using Phoenix WinNonlin 6.2 (Pharsight Corporation, Palo Alto, California). […] AUC0‐inf was calculated from the area under the plasma concentration‐time curve from time 0 until the time corresponding with the last observed quantifiable concentration + Ct/λz, where Ct was the last observed quantifiable concentration and λz the first‐order terminal rate constant. […]

[2] = parameters: method as in PMID 32902984; conditions: human and animals; cited from earlier work
[3] = system: cytochrome P450 (CYP) 3A4 and CYP2C19; conditions: background statement, no reference given; cited from earlier work
CYP2C8 = system: CYP2C8; parameters: method as in data on file at Galapagos; conditions: in vitro; ref data on file at Galapagos; cited from earlier work
CYP1A2 [4] = system: CYP1A2; parameters: method as in data on file at Galapagos; conditions: in vitro; ref data on file at Galapagos; cited from earlier work
CYP1A2 [5] = system: CYP1A2; parameters: method as in data on file at Galapagos, 8, 9; conditions: 100 mg once daily, healthy male subjects; ref data on file at Galapagos, 8, 9; cited from earlier work

## O=c1nc(OC[C@@H]2COCCO2)cc2n1CCc1cc(C#CC3CC3)ccc1-2 [GLPG1205, 9‐cyclopropylethynyl‐2‐((S)‐1‐[1,4]dioxan‐2‐ylmethoxy)‐6,7‐dihydropyrimido[6,1‐a]isoquinolin‐4‐one]
[1]; 250-mg loading dose + 13 days 50 mg once daily vs 14 days 50 mg once daily
  steady-state exposure with loading dose vs cohort A without: no difference in steady‐state exposure
[1]; 144 hours after the last dose on day 14, all subjects
  quantifiability in plasma after last dose: quantifiable in plasma up to day 20
[1]; after 250-mg loading dose on day 1
  time of maximal mean GLPG1205 concentration: 12 hours after dosing
[1]; after the loading dose of 250 mg
  day by which steady state in plasma concentration was reached: ≤ 2 days
[1]; cohort D 65-74 y, 250-mg loading dose then 50 mg once daily, day 14, mean (CV%)
  Rac: 1.35 (22.8)
[1]; day 14, ratio of cohort D relative to cohort A expressed as a percentage
  Rac point estimate (CI), cohort D vs cohort A: <.0001 22.11 (18.46‐26.48)
[1]; follow-up visit day 35, 504 hours after the last dose
  subjects with GLPG1205 below the limit of quantification: 5 of 8
[1]; human, plasma, oral, cohort D 65-74 y, 250-mg loading dose then 50 mg once daily, day 14, mean (CV%)
  Cmax: 2630 ng/mL
[1]; human, plasma, oral, cohort D 65-74 y, 250-mg loading dose then 50 mg once daily, day 14, mean (CV%), N = 6
  AUC(0-inf): 250 µg·h/mL
[1]; human, plasma, oral, cohort D 65-74 y, 250-mg loading dose then 50 mg once daily, day 14, mean (CV%), N = 7, read-out: t1/2,λz (converted)
  half-life: 55.4 h
[1]; human, plasma, oral, cohort D 65-74 y, 250-mg loading dose then 50 mg once daily, day 14, mean (CV%), read-out: AUC0–24h
  AUC(0-t): 53.7 µg·h/mL
[1]; human, plasma, oral, cohort D 65-74 y, 250-mg loading dose then 50 mg once daily, day 14, mean (CV%), read-out: C24h
  concentration at 24 h: 2360 ng/mL
[1]; human, plasma, oral, day 35, 504 hours after the last dose, subjects in whom still quantifiable, read-out: plasma GLPG1205 level at follow-up
  concentration at 504 h: 2.01 to 21.6 ng/mL
[1]; single 250-mg loading dose
  time to reach steady-state exposure: 1 days
[2]
  plasma protein binding: ≥ 92%
[3]
  main enzymes involved in GLPG1205 metabolism: cytochrome P450 (CYP) 3A4 and CYP2C19
CYP2C8
  inhibition of CYP2C8: weak inhibition
CYP1A2 [4]
  induction of CYP1A2: weak induction
CYP1A2 [5]
  effect on exposure of CYP1A2: did not affect the exposure
